The source made the active and inactive calls. No cut-off for these calls is given here.
Legend:
Candida albicans [1] = assay: Antifungal activity against Candida albicans ATCC 90028 at 100 ug/ml; format: functional, organism-based
Candida albicans [2] = assay: Antifungal activity against Candida albicans ATCC 90028 at 10 ug/ml; format: functional, organism-based

Row | Compound | Activity (Candida albicans [1]) | Activity (Candida albicans [2])
1 | O=C1OC(CO)C=C1c1ccc(Br)cc1 (configuration not stated) | Active | –
2 | CC(=O)OCC1C=C(c2ccc(Br)cc2)C(=O)O1 (configuration not stated) | – | Active
